According to patent publication US12427134B2, “Methods of reducing the risk of cardiovascular events in a subject with atrial fibrillation and/or atrial flutter” (priority 2019, dated 2025):

System: hypertriglyceridemic patients with cardiovascular disease or at high risk for cardiovascular disease
Assay: REDUCE-IT: time to first occurrence of adjudicated cardiovascular endpoint events (primary, key secondary, other secondary, tertiary; sensitivity and landmark analyses)
Type: in vivo
From the text: The following study, also referred to as the REDUCE-IT clinical trial, was a large cardiovascular (CV) outcome trial designed to assess CV risk reduction benefit of AMR101 treatment (commercially known as VASCEPA®) versus placebo on the 5-point primary composite endpoint: CV death, non-fatal stroke, non-fatal myocardial infarction (MI), coronary revascularizations, or unstable angina requiring hospitalization.
A multi-center, prospective, randomized, double-blind, placebo-controlled, parallel-group study was performed to evaluate the effect of AMR101 (4 g per day) on cardiovascular health and mortality in hypertriglyceridemic patients with cardiovascular disease or at high risk for cardiovascular disease. The intended expanded indication of the study was treatment with AMR101 as an add-on to statin therapy to reduce the risk of cardiovascular events in patients with clinical cardiovascular disease or with multiple risk factors for cardiovascular disease.
The primary objective of this study was, in patients at LDL-C goal while on statin therapy, with established cardiovascular disease (CVD) or at high risk for CVD, and hypertriglyceridemia (e.g., fasting triglycerides (TG) ≥200 mg/dL and <500 mg/dL), to evaluate the effect of AMR101 4 g daily on time from randomization to first occurrence of any component of the composite of the following major CV events: CV death; nonfatal MI; (including silent MI; electrocardiograms (ECGs) were performed annually for the detection of silent MIs); nonfatal stroke; coronary revascularization; and unstable angina determined to be caused by myocardial ischemia by invasive/non-invasive testing and requiring emergent hospitalization.
The key secondary objective of this study was to evaluate the effect of AMR101 4 g daily on the time from randomization to the first occurrence of the composite of following major CV events: CV death, nonfatal MI (including silent MI), and nonfatal stroke.
Other secondary objectives for this study were to evaluate the effect of therapy on time from randomization to the first occurrence of the following individual or composite endpoints: composite of CV death or nonfatal MI (including silent MI); fatal or nonfatal MI (including silent MI); non-elective coronary revascularization represented as the composite of emergent or urgent classifications; CV death; unstable angina determined to be caused by myocardial ischemia by invasive/non-invasive testing and requiring emergent hospitalization; fatal or nonfatal stroke; composite of total mortality, nonfatal MI (including silent MI), or nonfatal stroke; and total mortality.
The key tertiary objectives for this study were to evaluate the effect of AMR101 4 g daily from baseline and percent change from baseline in fasting triglycerides and LDL-C. […]

[1] = ITT population, listed as Icosapent Ethyl
[2] = clinically adjudicated arrhythmia sequelae, safety population
[3] = clinically adjudicated arrhythmia sequelae, safety population, vs placebo
[4] = determined programmatically, ITT
[5] = excludes patients with Type 1 or Type 2 diabetes at baseline, ITT
[6] = tertiary endpoint, first occurrence, ITT
[7] = vs placebo, listed as Icosapent Ethyl
[8] = vs placebo, listed as icosapent ethyl

SMILES: CC/C=C\C/C=C\C/C=C\C/C=C\C/C=C\CCCC(=O)OCC [AMR101, eicosapentaenoic acid ethyl ester]
- New Heart Failure (newly emergent CHF), HR (95% CI) [1]: 0.95 (0.77, 1.17)
- New Heart Failure (newly emergent CHF), patients with event [1]: (4.1%)
- New Heart Failure Requiring Hospitalization, HR (95% CI) [1]: 0.97 (0.77, 1.22)
- New Heart Failure Requiring Hospitalization, patients with event [1]: (3.4%)
- New Onset Hypertension, HR (95% CI) [1]: 0.86 (0.41-1.80)
- Peripheral Artery Disease, HR (95% CI) [1]: 0.97 (0.78-1.21)
- Peripheral Artery Disease, patients with event [1]: (3.8) %
- Sudden Cardiac Death, HR (95% CI) [1]: 0.69 (0.50, 0.96)
- Sudden Cardiac Death, patients with event [1]: (1.5%)
- Transient Ischemic Attack, patients with event [1]: (1.6%)
- Urgent Revascularization, HR (95% CI) [1]: 0.66 (0.54, 0.79)
- Urgent Revascularization, patients with event [1]: (4.4%)
- Deaths with undetermined cause (Safety population): 36 (0.9) n (%)
- Non-CV deaths (Safety population): 100 (2.4) n (%)
- Total mortality (Safety population, N = 4089): 274 (6.7) n (%)
- Coronary Revascularization, events (%) (clinically adjudicated arrhythmia sequelae, composite of emergent, urgent, elective, salvage, safety population): (9.2%)
- Any Myocardial Infarction, events (%) [2]: (6.1%)
- Any Stroke, events (%) [2]: (2.4%)
- Cardiac Arrest, events (%) [2]: (0.5%)
- Carotid Revascularization, events (%) [2]: (0.8%)
- Sudden Cardiac Death, events (%) [2]: (1.5%)
- Transient Ischemic Attack, events (%) [2]: (1.6%)
- Any Myocardial Infarction, HR (95% CI) [3]: 0.69 (0.58 to 0.81)
- Any Stroke, HR (95% CI) [3]: 0.72 (0.55 to 0.93)
- Cardiac Arrest, HR (95% CI) [3]: 0.52 (0.31 to 0.86)
- Sudden Cardiac Death, HR (95% CI) [3]: 0.69 (0.50 to 0.96)
- Transient Ischemic Attack, HR (95% CI) [3]: 1.32 (0.91 to 1.92)
- Coronary Revascularization, HR (95% CI) Icosapent Ethyl/Placebo (composite of emergent, urgent, elective, salvage, ITT): 0.66 (0.58-0.76)
- Coronary Revascularization, patients with event (%) (composite of emergent, urgent, elective, salvage, first occurrence, ITT): (9.2) %
- New Onset Hypertension, HR (95% CI) Icosapent Ethyl/Placebo [4]: 0.86 (0.41-1.80)
- New Onset Hypertension, patients with event (%) [4]: (0.3) %
- New Onset Type 2 Diabetes, HR (95% CI) Icosapent Ethyl/Placebo [5]: 1.04 (0.73-1.47)
- New Onset Type 2 Diabetes, patients with event (%) [5]: (3.8) %
- Primary endpoint, risk reduction (post hoc analysis excluding patients with diarrhea): 25%
- Cardiac Arrest, HR (95% CI) Icosapent Ethyl/Placebo (tertiary endpoint, ITT): 0.52 (0.31-0.86)
- Elective Revascularization, HR (95% CI) Icosapent Ethyl/Placebo (tertiary endpoint, ITT): 0.68 (0.57-0.82)
- Emergent Revascularization, HR (95% CI) Icosapent Ethyl/Placebo (tertiary endpoint, ITT): 0.62 (0.42-0.92)
- Ischemic Stroke, HR (95% CI) Icosapent Ethyl/Placebo (tertiary endpoint, ITT): 0.64 (0.49-0.85)
- Newly Emergent CHF Requiring Hospitalization, HR (95% CI) Icosapent Ethyl/Placebo (tertiary endpoint, ITT): 0.97 (0.77-1.22)
- Newly Emergent CHF, HR (95% CI) Icosapent Ethyl/Placebo (tertiary endpoint, ITT): 0.95 (0.77-1.17)
- Peripheral Artery Disease, HR (95% CI) Icosapent Ethyl/Placebo (tertiary endpoint, ITT): 0.97 (0.78-1.21)
- Salvage Revascularization, HR (95% CI) Icosapent Ethyl/Placebo (tertiary endpoint, ITT): 0.00 (0.00-0.00)
- Sudden Cardiac Death, HR (95% CI) Icosapent Ethyl/Placebo (tertiary endpoint, ITT): 0.69 (0.50-0.96)
- Transient Ischemic Attack, HR (95% CI) Icosapent Ethyl/Placebo (tertiary endpoint, ITT): 1.32 (0.91-1.92)
- Urgent Revascularization, HR (95% CI) Icosapent Ethyl/Placebo (tertiary endpoint, ITT): 0.66 (0.54-0.79)
- Amputation for PVD, patients with event (%) [6]: (0.5) %
- Cardiac Arrest, patients with event (%) [6]: (0.5) %
- Cardiac Arrhythmia Requiring Hospitalization of ≥24 Hours, patients with event (%) [6]: (4.6) %
- Carotid Revascularization, patients with event (%) [6]: (0.8) %
- Elective Revascularization, patients with event (%) [6]: (4.7) %
- Emergent Revascularization, patients with event (%) [6]: (1.0) %
- Hemorrhagic Stroke, patients with event (%) [6]: (0.3) %
- Ischemic Stroke, patients with event (%) [6]: (2.0) %
- Newly Emergent CHF Requiring Hospitalization, patients with event (%) [6]: (3.4) %
- Newly Emergent CHF, patients with event (%) [6]: (4.1) %
- Peripheral Artery Disease, patients with event (%) [6]: (3.8) %
- Salvage Revascularization, patients with event (%) [6]: (0.0) %
- Sudden Cardiac Death, patients with event (%) [6]: (1.5) %
- Transient Ischemic Attack, patients with event (%) [6]: (1.6) %
- Urgent Revascularization, patients with event (%) [6]: (4.4) %
- Total mortality utilizing known vital status data (through 31 May 2018, assessed as of database lock): 7.3%
- Key secondary composite endpoint, relative risk reduction (vs placebo): 26.5%
- Primary composite endpoint, relative risk reduction (vs placebo): 24.8%
- Key secondary composite endpoint, relative risk reduction [7]: 26%
- Primary composite endpoint, relative risk reduction [7]: 25%
- Key secondary composite endpoint, relative risk reduction [8]: 26%
- Primary composite endpoint, relative risk reduction [8]: 25%
